For 30 compounds, TGI and GI50 results are on record in PubChem BioAssay (NCI).

Structures are written as SMILES. Where “and” joins values, the source holds several entries; their conditions need not be identical. Equal entries are not always repeated.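 How tested: cells in 96-well plates exposed to compound for 48 hours at five concentrations. GI50 marks 50% less growth. Definition used: TGI = concentration required for complete inhibition of growth.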

What all share (assay): NCI tumour cell line growth inhibition, 48 h
Test [1] concerns COLO 205 colon.
Test [2] relates to 786-0 renal.
For test [3], the system named is SK-MEL-5 melanoma.
Test [4] has as its system OVCAR-5 ovarian.
Test [5] concerns RPMI-8226 leukemia.
Test [6] relates to SK-MEL-28 melanoma.
Test [7] has as its system SW-620 colon.
Test [8] has as its system MDA-MB-231 breast.
Test [9] has as its system NCI/ADR-RES ovarian.
Test [10] deals with HS 578T breast.

Turning to `O=C(CCCNC(=O)OCc1ccccc1)OCc1ccc2c(c1)C(=O)c1ccccc1C2=O`, the TGI was more than 23 µM in test [1]; more than 56.2 µM in [2]; more than 100 µM in test [3]; more than 100 µM in test [4]; more than 100 µM in test [5]; more than 100 µM in [6]. This compound also yielded a TGI in test [7] of more than 100 µM.
As to `CN(/N=C/c1ccnc2ccccc12)c1ccc([N+](=O)[O-])cc1[N+](=O)[O-]`, the TGI in test [1] is more than 100 µM; in test [2], 74.6 µM; in [3], more than 100 µM; in [4], more than 100 µM; in test [5] it was more than 100 µM; in [6], more than 100 µM. Besides, the TGI in [7] is more than 100 µM.
For `O=C(N/C(=C\c1ccc(Br)cc1)c1nc2ccccc2s1)c1ccccc1`, the TGI in test [1], in test [2], in test [3], in [4], in test [5] and in test [6] was more than 100 µM each time. Besides, in test [7], the TGI is more than 100 µM.
For `CC(=O)OCC(OC(C)=O)C(OC(C)=O)C(OC(C)=O)C(=O)CNn1c(-c2ccccc2)nc2ccc(Br)cc2c1=O` (stereo not given), the TGI in test [1], in [2], in [3], in test [4], in [5] and in test [6] was more than 100 µM throughout. Besides, the TGI in test [7] is more than 100 µM.
On to `CC(C)CC(CNC(Cc1ccc(Cl)cc1)C(N)=O)NC(=O)C(Cc1cnc[nH]1)NC(=O)CNC(=O)C(NC(=O)C(C)NC(=O)C(Cc1c[nH]c2ccccc12)NC(=O)C(CCC(=O)O)NC(=O)C(N)Cc1ccccc1)C(C)C` (stereo not given), for which the TGI in test [1], in test [2], in test [5], in test [6] and in test [7] was more than 133 µM in each case.
Turning to `COc1cc(/C=C2\CC3C4CC=C5C[C@@H](N6CCCC6)CC[C@]5(C)C4CC[C@]3(C)[C@H]2OC(C)=O)ccc1OCCN1CCCCC1` (stereo not given in full), the GI50 in test [2] was 0.217 µM; in test [3] it was 1.53 µM; in test [8] it was 2.27 µM; in test [4], 1.46 µM; in [5], 0.0109 µM; in test [9], 1.74 µM. Besides, the GI50 is 2.31 µM in [6] and 0.777 µM in test [7]. Also, the TGI in test [2] was 1.89 µM; in test [3] it was 2.87 µM; in test [8], 4.1 µM; in test [4] it was 2.85 µM; in [5], 0.119 µM; in test [9], 3.2 µM. Moreover, the figures for the TGI in test [6] and in test [7] were 4.8 µM and 2.09 µM, respectively.
On to `CC1=Nc2c([nH]c(=S)[nH]c2=O)NC(c2ccc(Cl)c(Cl)c2)C1` (stereo not given), for which the TGI is 32.7 µM in [1]; 32.5 µM in [2]; more than 60.7 µM in [3]; more than 100 µM in [4]; more than 100 µM in test [5]; 36.7 µM in test [6]. The TGI in test [7] is more than 57.7 µM.
For the compound `CN(C)c1nc(N(C)C)n2nc(-c3ccccc3[N+](=O)[O-])nc2n1`, the TGI in test [1], in test [2], in test [3], in test [4], in test [5] and in test [6] was more than 100 µM throughout. For the same compound, the TGI in [7] worked out at 24.2 µM.
Take `COc1ccc(/C(Cl)=C(\C=O)c2ccc(Br)cc2)cc1OC`: the TGI in test [1], in test [2], in [3], in test [4], in test [5] and in test [6] was more than 100 µM throughout. The compound also gave a TGI in test [7] of more than 100 µM.
With `O=C(O)c1ccc(N=Nc2cc(S(=O)(=O)O)c3cccnc3c2O)cc1`, the TGI in [1], in test [2], in test [3], in test [4], in test [5] and in [6] was more than 100 µM throughout. Also, in test [7], the TGI was more than 100 µM.
As for `OCC(O)COc1c(Cl)ccc(Cl)c1Cl` (stereo not given), the TGI in test [1], in test [2], in [3], in test [4], in test [6] and in [7] was more than 100 µM throughout.
Regarding `COc1ccc(OC)c(-c2cc(-c3ccccc3)nn2-c2ccc(S(N)(=O)=O)cc2)c1`, the GI50 in [10] is 18.9 µM; in [2] it was 11.9 µM; in test [3], 16.5 µM; in [8], 11.1 µM; in [4], 15 µM; in [5] it was 1.93 µM. In addition, the values for the GI50 in test [9] and in [7] were 16.2 µM and 12.7 µM, respectively. Besides, the TGI in test [10] came out at 59.1 µM; in test [2], 24.6 µM; in [3], 31.3 µM; in [8], 27 µM; in [4] it was 28.8 µM; in test [5] it was 4.84 µM. For the same compound, the TGI came to 31.8 µM in test [9] and 33.4 µM in test [7].
Turning to `CCN(CC)CCCCCOc1cc(O)c2c(=O)cc(-c3ccccc3)oc2c1`, the GI50 in test [10] was 15.6 µM; in test [1], 2.13 µM; in test [2], 1.97 µM; in test [3], 1.91 µM; in [8], 1.49 µM; in [4], 2.37 µM. Moreover, the GI50 in test [9] was 3.06 µM; in [6], 1.62 µM; in test [7], 3.03 µM. Besides, the TGI is 42.7 µM in test [10]; 5.02 µM in [1]; 3.81 µM in [2]; 3.83 µM in [3]; 4.34 µM in [8]; 6.97 µM in test [4]. For the same compound, the results for the TGI in [9], in [6] and in [7] were 11.6 µM, 3.07 µM and 10.3 µM, respectively.
With `CC(C)c1cc(CNc2nc(Nc3cc(C4CC4)[nH]n3)cc(N3CCN(C)CC3)n2)on1`, the GI50 in test [2] is 1.43 µM and 0.223 µM; in [3], > 10 µM and 1.32 µM; in test [8] it was 1.29 µM and 0.151 µM; in test [5] it was 8.33 µM and 1.7 µM; in test [9] it was > 10 µM and 6.84 µM. Further, the TGI in [2] is > 10 µM and 3.72 µM; in test [3], > 10 µM and 4.72 µM; in test [8], > 10 µM and 5.42 µM; in test [4], > 10 µM and 3.91 µM; in test [5], > 10 µM and 5.76 µM; in test [9] it was > 10 µM and 25.4 µM. For the same compound, the TGI in test [6] is > 10 µM and 4.59 µM; in test [7] it was > 10 µM and 10.8 µM.
In the case of `CCOC(=O)CC1=NC(=Nc2cc(Cl)ccc2Cl)SC1`, the TGI in [1], in test [2], in [3], in test [4], in test [6] and in test [7] was more than 100 µM in each case.
Consider `C[C@H]1COC2(c3ccccc3)CCC(=O)N12` (stereo not given in full), for which the TGI in test [1], in test [2], in test [3], in [4], in [5] and in [6] was more than 100 µM throughout. In addition, the TGI in test [7] is more than 100 µM.
In the case of `COC(=O)C1=C(c2cc(OC)c(OC)c(OC)c2)OC(c2cc(OC)c(OC)c(OC)c2)C1COC(C)=O` (stereo not given), the TGI in [1] was 33.4 µM; in test [2] it was more than 100 µM; in [3], 97.8 µM; in test [4] it was more than 100 µM; in test [5] it was more than 100 µM; in [6], more than 100 µM. In [7], the TGI is more than 100 µM.
In the case of `CCc1ccccc1-n1c2nc(=O)n(C)c(=O)c-2nc2ccccc21`, the TGI in test [1] was 12.5 µM; in test [2], 30.5 µM; in test [3], 16.8 µM; in [4] it was 34.3 µM; in test [5] it was 58.7 µM; in [7] it was 27.3 µM.
For `O=C(CCc1ccccc1)On1nnc2ccccc2c1=O`, the TGI in test [1], in test [2], in test [3], in test [4] and in test [7] was more than 100 µM in each case.
`O=C1OC(c2ccccc2)=N/C1=C\c1c(O)cc(O)cc1O`: the TGI in test [1], in [2], in [3], in test [4], in test [5] and in [6] was more than 100 µM in each case. The compound also showed a TGI in [7] of more than 100 µM.
In the case of `Cc1cccc2c1Oc1cc(Cl)ccc1C2NC(=O)CN(C)C` (stereo not given), the TGI in test [1] was more than 100 µM; in test [2], 41.4 µM; in test [3], 49.3 µM; in test [4] it was more than 100 µM; in [5] it was more than 100 µM; in test [6], 72.7 µM. In addition, the TGI in test [7] was more than 100 µM.
As for `N#CCC(=O)N/N=C1/C(=O)NC(=O)C(=O)C1c1nc2ccccc2s1` (stereo not given), the TGI in [1], in test [2], in [3], in test [4], in test [5] and in [6] was more than 100 µM each time. In addition, in test [7], the TGI was more than 100 µM.
For `COc1ccc(/C=C/c2nc(=S)[nH][nH]2)cc1`, the TGI in test [2], in test [3], in [4], in test [5], in test [6] and in test [7] was more than 100 µM in each case.
As to `CN1CCN(Cc2ccc(NC(=O)c3[nH]ncc3Nc3ncnc4sccc34)cc2)CC1`, the GI50 in [10] is 0.0604 µM; in test [2] it was 0.351 µM; in test [4] it was 0.508 µM; in [5], 0.36 µM; in [9] it was 1.07 µM; in test [6] it was 0.857 µM. Moreover, the GI50 in test [7] was 0.315 µM. The TGI in test [10] is 2.93 µM; in test [2] it was more than 100 µM; in test [4], more than 100 µM; in [5], 1.38 µM; in test [9], more than 100 µM; in test [6], more than 100 µM. In [7], the TGI was more than 100 µM.
In the case of `CC(F)(F)c1cc(F)ccc1-c1sc2cc(O)ccc2c1Oc1ccc(/C=C/C(=O)O)cc1`, the GI50 is 4.89 µM in test [10]; 10.2 µM in test [2]; 4.05 µM in test [3]; 14.3 µM in test [8]; 17.4 µM in test [4]; 8.33 µM in [5]. For the same compound, the figures for the GI50 in test [9], in test [6] and in [7] were 6.66 µM, 5.79 µM and 8.56 µM, respectively. Moreover, the TGI in test [10] was 32.8 µM; in test [2], 31.2 µM; in test [3] it was 15.3 µM; in test [8], 35 µM; in test [4], 37.7 µM; in test [5] it was 74.8 µM. The TGI was determined as 40.1 µM in [9], 18.9 µM in [6] and 24.9 µM in test [7].
With `O=C1NC(=O)C2(CCC(O)C2)c2cc[n+]([O-])cc21` (stereo not given), the TGI in test [10], in [1], in test [2], in [8], in [4] and in test [5] was more than 100 µM throughout. For the same compound, the TGI in test [6] and in test [7] was more than 100 µM each time.
As for `Cc1ccc(S(=O)(=O)NC(CCC(=O)Nc2ccccc2)C(=O)Nc2ccccc2)cc1` (stereo not given), the GI50 in test [2] was 0.491 µM; in [3], 0.226 µM; in test [5], 0.309 µM; in test [9], 0.475 µM; in test [7], 0.719 µM. Also, the TGI in test [2] turned out to be 2.04 µM; in [3], 0.656 µM; in test [5] it was 1.58 µM; in [9], 2.19 µM; in test [7] it was 2.93 µM.
In the case of `COC1(OC)CC2C(=O)N(Cc3ccccc3)C1CC2S(=O)(=O)c1ccccc1` (stereo not given), the TGI in [1], in test [2], in test [3], in [5], in test [6] and in test [7] was more than 100 µM throughout.
For the compound `CCOC(=O)C1=C(NC(C)(C)C)OCC1=O`, the TGI in [1], in test [2], in test [4], in [5], in [6] and in test [7] was more than 100 µM in each case.
On to `Cc1c(C2Cc3ccccc3N2C(=O)/C=C\C(=O)O)c2ccccc2n1C` (stereo not given), for which the TGI in test [1] is 32.1 µM; in test [2] it was 49.3 µM; in test [3], 41.5 µM; in test [4], more than 100 µM; in test [7], 41.5 µM.
